US10478425B2, “5-phenylazaindole derivative having AMPK-activating activity” (Shionogi & Co., Ltd., priority 2016, dated 2019)

Biological target: T1, Human AMPK α2β2γ1 (Homo sapiens, UniProt O43741+P54646)
T1 construct: The full length cDNAs of human AMPK β2 (NM_005399.3) and human AMPK α2 (NM_006252.3); The full length cDNAs of human AMPK β2 (NM_005399.3); the full length cDNA of human AMPK γ1 (NM_002733.3) had been inserted into pET28b(+); 6×His (N); made in house; host or cells: Escherichia coli BL21 CodonPlus (DE3)-RIL
Assay: Test Example 2: activation of phosphorylated human AMPK α2β2γ1 (mobility-shift kinase assay, FL-Peptide 7)
Format: biochemical
Details: for EC150: compound concentration showing 150% relative to the control (100%), human AMPK α2β2γ1 phosphorylated with CaMKK2; for Emax: maximum rate of increase in activity within the measurement range, control = 100%, read-out: Emax
Protocol: The full length cDNAs of human AMPK β2 (NM_005399.3) and human AMPK α2 (NM_006252.3) were inserted into the MCS1 and MCS2 of the pETDuet-1 vector to prepare a human AMPK β2 and human AMPK α2 (6×His tag at the 5′ terminus) expressing plasmid. The plasmid was cotransfected with an expression plasmid, in which the full length cDNA of human AMPK γ1 (NM_002733.3) had been inserted into pET28b(+), into BL21 CodonPlus (DE3)-RIL to obtain an expression strain. The expression strain was cultured in TB medium, followed by induction with 0.5 mM IPTG, and cultured at 25° C. for 3 hours and then harvested. After ultrasonication, supernatant was collected and applied to Histrap FF column (GE) and RESOUECE Q column (GE) to prepare 12.5 mg of purified sample containing three types of subunit from 1.8 L of broth.
An expression vector, in which the full length cDNA of human CAMKK β (NM_172226.1) had been inserted into pGEX-6P-3, was transfected into BL21 Star (DE3). The expression strain was cultured in TB medium, followed by induction with 0.5 mM IPTG, and cultured at 25° C. for 3 hours and then harvested. After ultrasonication, supernatant was collected and applied to GSTrap FF column (GE) to prepare 14 mg of GST-fused CAMKK β from 720 ml of broth.
Thus, phosphorylation treatment was carried out as pretreatment.
Human AMPK α2β2γ1 in an amount to give a conversion rate of approximately 10% by reaction for 2 hours, and CaMKK2 in an amount capable of sufficiently imparting activity to AMPK for one hour were mixed in a buffer solution consisting of a 50 mM HEPES-NaOH buffer solution (pH 7.0), 100 mM NaCl, 5 mM magnesium chloride, 0.1% bovine serum albumin, 0.2 mM sodium orthovanadate(V), 1 mM ethylene glycol-bis(2-aminoethyl ether)-N,N,N′,N′-tetraacetic acid (EGTA), 5 mM disodium β-glycerophosphate, 1 mM dithiothreitol and 0.2 mM ATP, and the resulting liquid was left to stand at 25° C. for 1 to 1.5 hours to sufficiently phosphorylate AMPK.
After that, to the enzyme liquid, which had been subjected to phosphorylation treatment, a compound dissolved in DMSO was added so as to have a 1% DMSO concentration. The resulting liquid was left to stand for 10 minutes.
To the liquid, a substrate solution consisting of a 50 mM HEPES-NaOH buffer solution (pH 7.0), 100 mM NaCl, 10 mM magnesium chloride, 0.1% bovine serum albumin, 0.2 mM sodium orthovanadate(V), 1 mM ethylene glycol-bis(2-aminoethyl ether)-N,N,N′,N′-tetraacetic acid (EGTA), 5 mM disodium β-glycerophosphate, 2 mM dithiothreitol, 0.4 mM ATP and 3 μM FL-Peptide 7 (manufactured by Caliper Life Sciences, Inc.) was added in equal amount (10 μl in total). The resulting liquid was allowed to react at 25° C. for 2 hours, then 10 μl of 20 mM EDTA was added thereto to stop the reaction.
To detect phosphorylated fluorescent substrates, the reaction mixture was applied to a measuring device, LabChip EZ Reader II manufactured by Caliper Life Science, Inc., for detecting fluorescence by using differences in mobility due to differences in charge. The setting conditions for the device were pressure, −1.5 PSI; upstream voltage, −2250 V; downstream voltage, −400 V; post sample buffer sip time, 40 seconds; final delay, 120 seconds; and peak order, Product First.
A conversion rate was calculated from the peak heights of the obtained substrate and product. The conversion rate when not containing a compound was used as a control, and a concentration dependent curve was made by plotting the rate of increase in activity to the control at each concentration of a compound.

T1 sequence (P54646 whole entry): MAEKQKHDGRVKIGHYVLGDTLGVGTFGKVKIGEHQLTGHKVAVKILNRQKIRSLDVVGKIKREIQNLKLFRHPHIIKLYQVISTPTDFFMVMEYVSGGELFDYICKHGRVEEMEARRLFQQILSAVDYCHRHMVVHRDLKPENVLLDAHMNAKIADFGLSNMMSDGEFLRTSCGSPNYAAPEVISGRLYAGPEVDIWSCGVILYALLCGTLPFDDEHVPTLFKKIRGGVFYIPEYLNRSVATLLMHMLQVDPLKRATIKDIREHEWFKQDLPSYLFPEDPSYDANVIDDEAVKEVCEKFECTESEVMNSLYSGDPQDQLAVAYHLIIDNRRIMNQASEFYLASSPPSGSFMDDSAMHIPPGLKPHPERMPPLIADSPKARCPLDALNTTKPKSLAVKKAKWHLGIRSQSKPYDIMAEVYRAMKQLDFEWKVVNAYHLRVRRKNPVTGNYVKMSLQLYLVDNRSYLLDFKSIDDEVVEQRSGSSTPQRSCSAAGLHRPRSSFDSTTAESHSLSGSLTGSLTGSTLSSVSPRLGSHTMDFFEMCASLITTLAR
T1 sequence (O43741 whole entry): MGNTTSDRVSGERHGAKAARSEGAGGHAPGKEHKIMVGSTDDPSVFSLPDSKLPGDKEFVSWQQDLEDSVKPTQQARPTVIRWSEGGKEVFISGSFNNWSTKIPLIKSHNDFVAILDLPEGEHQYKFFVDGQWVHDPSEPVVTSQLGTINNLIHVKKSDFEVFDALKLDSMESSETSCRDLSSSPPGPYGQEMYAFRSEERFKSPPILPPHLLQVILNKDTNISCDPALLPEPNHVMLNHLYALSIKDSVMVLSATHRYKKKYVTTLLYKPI
T1 sequence (P54619 whole entry partner): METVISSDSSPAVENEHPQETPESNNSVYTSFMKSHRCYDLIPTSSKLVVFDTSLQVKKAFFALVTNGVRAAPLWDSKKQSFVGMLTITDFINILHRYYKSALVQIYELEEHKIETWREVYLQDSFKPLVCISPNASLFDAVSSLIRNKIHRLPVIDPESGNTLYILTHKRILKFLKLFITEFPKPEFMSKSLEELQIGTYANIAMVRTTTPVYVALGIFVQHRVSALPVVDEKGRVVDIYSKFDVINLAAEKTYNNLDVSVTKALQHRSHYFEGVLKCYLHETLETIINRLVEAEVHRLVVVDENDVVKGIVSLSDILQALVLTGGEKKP

Row | SMILES | EC150 | Emax
1 | CCOC(=O)NC1CCN(c2ccc(-c3nc4cc(O[C@@H]5CO[C@H]6[C@@H]5OC[C@H]6O)[nH]c4cc3F)cc2)CC1 [Compound I-1-10] | 13 nM | 490%
2 | O[C@@H]1CO[C@H]2[C@@H]1OC[C@H]2Oc1cc2nc(-c3ccc(-c4ccc(CN5CCOCC5)cc4)cc3)c(F)cc2[nH]1 [Compound I-2-22] | 5.9 nM | 348%
3 | COC(=O)NC1CC=C(c2ccc(-c3nc4cc(O[C@@H]5CO[C@H]6[C@@H]5OC[C@H]6O)[nH]c4cc3F)cc2)CC1 (some centres unmarked) [Compound I-1-22] | 3.8 nM | 422%
4 | CS(C)(=O)=Nc1ccc(-c2ccc(-c3nc4cc(O[C@@H]5CC[C@@H](CO)OC5)[nH]c4cc3F)cc2)cc1 [Compound I-1-06] | 19 nM | 263%
5 | O[C@@H]1CO[C@H]2[C@@H]1OC[C@H]2Oc1cc2nc(-c3ccc(-c4ccc(N5CCOCC5)cc4)cc3)c(F)cc2[nH]1 [Compound I-2-20] | 2.3 nM | 375%
6 | COCCN(C)c1ccc(-c2ccc(-c3nc4cc(O[C@@H]5CO[C@H]6[C@@H]5OC[C@H]6O)[nH]c4cc3F)cc2)cc1 [Compound I-2-12] | 6.9 nM | 367%
7 | OCC1(c2ccc(-c3nc4cc(O[C@@H]5CO[C@H]6[C@@H]5OC[C@H]6O)[nH]c4cc3F)cc2)CC1 [Compound I-2-66] | 1.1 nM | 580%
8 | O[C@@H]1CO[C@H]2[C@@H]1OC[C@H]2Oc1cc2nc(-c3ccc(C#CC4CCNCC4)cc3)c(F)cc2[nH]1 [Compound I-2-64] | 16 nM | 536%
9 | COCC(=O)Nc1ccc(-c2ccc(-c3nc4cc(O[C@@H]5CO[C@H]6[C@@H]5OC[C@H]6O)[nH]c4cc3F)cc2)cc1 [Compound I-2-10] | 2.9 nM | 636%
10 | CC(=O)Nc1ccc(-c2ccc(-c3nc4cc(O[C@@H]5CO[C@H]6[C@@H]5OC[C@H]6O)[nH]c4cc3F)cc2)cc1 [Compound I-1-35] | 5.9 nM | 432%
11 | CNC(=O)c1ccc(-c2ccc(-c3nc4cc(O[C@@H]5CO[C@H]6[C@@H]5OC[C@H]6O)[nH]c4cc3F)cc2)cc1F [Compound I-1-54] | 3.3 nM | 416%
12 | CC(=O)N[C@H]1CC[C@H](c2ccc(-c3nc4cc(O[C@@H]5CO[C@H]6[C@@H]5OC[C@H]6O)[nH]c4cc3F)cc2)CC1 [Compound I-1-41] | 7.8 nM | 562%
13 | COc1ccc(-c2ccc(-c3nc4cc(O[C@@H]5CO[C@H]6[C@@H]5OC[C@H]6O)[nH]c4cc3F)cc2)cc1 [Compound I-2-24] | 11 nM | 364%
14 | O=C1CCCN1c1ccc(-c2ccc(-c3nc4cc(O[C@@H]5CO[C@H]6[C@@H]5OC[C@H]6O)[nH]c4cc3F)cc2)cc1 [Compound I-1-37] | 6.5 nM | 405%
15 | COC(=O)N[C@H]1CC[C@H](c2ccc(-c3nc4cc(O[C@@H]5CO[C@H]6[C@@H]5OC[C@H]6O)[nH]c4cc3F)cc2)CC1 [Compound I-1-39] | 13 nM | 552%
16 | O=C1NCCN1c1ccc(-c2ccc(-c3nc4cc(O[C@@H]5CO[C@H]6[C@@H]5OC[C@H]6O)[nH]c4cc3F)cc2)cc1 [Compound I-1-58] | 1.3 nM | 494%
17 | CN(C)S(=N)(=O)c1ccc(-c2ccc(-c3nc4cc(O[C@@H]5CO[C@H](CO)C5)[nH]c4cc3F)cc2)cc1 (some centres unmarked) [Compound I-2-25] | 1.9 nM | 426%

Row | SMILES | EC150 | Emax
18 | O[C@@H]1CO[C@H]2[C@@H]1OC[C@H]2Oc1cc2nc(-c3ccc(-c4ccc(OCCC(F)F)cc4)cc3)c(F)cc2[nH]1 [Compound I-2-63] | 21 nM | 520%
19 | CP(C)(=O)c1ccc(-c2ccc(-c3nc4cc(O[C@@H]5CO[C@H](CO)C5(F)F)[nH]c4cc3F)cc2)cc1 [Compound I-2-89] | 0.94 nM | 556%
20 | COCCOc1cc(F)c(-c2ccc(-c3nc4cc(O[C@@H]5CO[C@H]6[C@@H]5OC[C@H]6O)[nH]c4cc3F)cc2)c(F)c1 [Compound I-2-76] | 20 nM | 490%
21 | O=C(Nc1ccc(-c2ccc(-c3nc4cc(O[C@@H]5CO[C@H]6[C@@H]5OC[C@H]6O)[nH]c4cc3F)cc2)cc1)[C@@H]1C[C@@H]1F [Compound I-2-05] | 6.8 nM | 632%
22 | COCCS(=O)(=O)c1ccc(-c2ccc(-c3nc4cc(O[C@@H]5CO[C@H]6[C@@H]5OC[C@H]6O)[nH]c4cc3F)cc2)cc1 [Compound I-2-95] | 2.6 nM | 634%
23 | COCC[S+]([O-])c1ccc(-c2ccc(-c3nc4cc(O[C@@H]5CO[C@H]6[C@@H]5OC[C@H]6O)[nH]c4cc3F)cc2)cc1 (some centres unmarked) [Compound I-2-93] | 1.1 nM | 652%
24 | O[C@@H]1CO[C@H]2[C@@H]1OC[C@H]2Oc1cc2nc(-c3ccc(-c4ccc(OC5CCOC5)cc4)cc3)c(F)cc2[nH]1 (some centres unmarked) [Compound I-2-69] | 13 nM | 557%
25 | COC(=O)NC1CC=C(c2ccc(-c3nc4cc(O[C@@H]5CO[C@H](CO)C5)[nH]c4cc3F)cc2)CC1 (some centres unmarked) [Compound I-2-01] |  | 376%
26 | O[C@@H]1CO[C@H]2[C@@H]1OC[C@H]2Oc1cc2nc(-c3ccc(-c4ccc(OC5CCNCC5)cc4)cc3)c(F)cc2[nH]1 [Compound I-2-60] | 2 nM | 564%
27 | COC(=O)N1CCC(Oc2ccc(-c3ccc(-c4nc5cc(O[C@@H]6CO[C@H]7[C@@H]6OC[C@H]7O)[nH]c5cc4F)cc3)cc2)C1 (some centres unmarked) [Compound I-2-51] | 9.7 nM | 590%
28 | CC(C)(O)/C=C/c1ccc(-c2ccc(-c3nc4cc(O[C@@H]5CO[C@H]6[C@@H]5OC[C@H]6O)[nH]c4cc3F)cc2)cc1 [Compound I-2-15] | 11 nM | 505%
29 | Clc1cc2[nH]c(O[C@H]3CCOC3)cc2nc1-c1ccc(-c2ccc(OC3CCNC3)cc2)cc1 (some centres unmarked) [Compound I-2-21] | 13 nM | 249%
30 | O[C@@H]1CO[C@H]2[C@@H]1OC[C@H]2Oc1cc2nc(-c3ccc(-c4ccc(OC5CNCC5F)cc4)cc3)c(F)cc2[nH]1 (some centres unmarked) [Compound I-1-71] | 4.33 nM | 340%
31 | COc1cc(-c2ccc(N=S3(=O)CCCC3)cc2)ccc1-c1nc2cc(O[C@@H]3CO[C@H]4[C@@H]3OC[C@H]4O)[nH]c2cc1F [Compound I-1-20] | 8.3 nM | 457%
32 | CNS(C)(=O)=Nc1ccc(-c2ccc(-c3nc4cc(O[C@@H]5CO[C@H](CO)C5)[nH]c4cc3F)cc2)cc1 (some centres unmarked) [Compound I-2-46] | 2.8 nM | 699%
33 | CCP(=O)(CC)c1ccc(-c2ccc(-c3nc4cc(O[C@@H]5CO[C@H]6[C@@H]5OC[C@H]6O)[nH]c4cc3F)cc2)cc1 [Compound I-2-72] | 2.7 nM | 591%
